# From paper PMC4479448, “Delivery of Topically Applied Calpain Inhibitory Peptide to the Posterior Segment of the Rat Eye” (PLoS ONE, 2015)
# Where a SMILES comes first, the peptide text is derived from it.
# Legend:
# [1] = rat, in vivo; cited from earlier work
# [2] = Immunohistochemical distribution of topically instilled peptide in and around the eye (anti-HIV1 tat antibody); format: in vivo, Sprague-Dawley rats; settings: for distribution of topically instilled peptide (immunoreactivity): n = 3 eyes (3 rats)
# Description: (§1) Every effort was taken to minimize suffering. […] Animals were randomly allocated into experimental or control group.
# Distribution of the peptide was analyzed by immune-positive reactions observed in and around the rat eyes. Immunohistochemical experiments were performed in line with our previously reported method. Briefly, rats were euthanized after the final eye drop instillation by inhalation of carbon dioxide at 1, 3 and 6 h. Eyes were immediately enucleated after euthanasia. For the immunohistochemistry, eyes were fixed in 4% paraformaldehyde in phosphate-buffered saline (PBS), pH 7.4, for 20 min at room temperature. Eyes were then placed in the fixative overnight at 4°C. Specimens were cryoprotected for 4 h in 10% then 20% sucrose in PBS, and then frozen in OCT compound. […] The sections were rinsed in PBS and blocked with 1% skim milk in PBS containing 0.05% Tween (PBS-T) for 2 h at room temperature. Sections were incubated overnight at 4°C with the mouse monoclonal antibody raised against HIV1 tat (ab63957, 1:200, Abcam, Cambridge, UK) diluted in 1% skim milk in PBS-T as the primary antibody. Sections were then washed with PBS-T and incubated with tetramethylrhodamine isothiocyanate isomer R (TRITC)-conjugated rabbit anti-mouse IgG (R0270, 1:200, Dako, Glostrup, Denmark) overnight at 4°C. Sections were washed with PBS-T and nuclei were counterstained with 4’ 6-diamidino-2-phenylindole (DAPI). Immunofluorescent images were obtained by laser confocal microscopy (FV1000-D; Olympus, Tokyo, Japan).
# [3] = Sandwich ELISA quantification of topically instilled peptide in retinal extract; format: in vivo, Sprague-Dawley rats; settings: for roughly equivalent concentration of the peptide in the intracellular space: converted from ELISA value; for concentration of the Tat-μCL in the retina: 1 mM, 20 μl eye drops twice a day for 7 days, whole retina extract, sandwich ELISA, average ± SD, n = 6 eyes (6 rats)
# Description: as §1
# The amount of the peptide delivered to the retina was quantified by sandwich ELISA as per a previously reported method. In this procedure, we first added 50 μl of rabbit polyclonal anti-HIV1 tat antibody (1:2000, ab43014, Abcam) diluted with 0.05 M carbonate-bicarbonate buffer, pH 9.6, to 96-well immunoplates (Nunc, Roskilde, Denmark). After incubating the plates overnight at 4°C, the plates were washed three times with PBS-T, and then incubated with PBS-T containing 10% bovine serum albumin (BSA) at 37°C for 2 h. Subsequently, we then washed the plates with PBS and incubated the plates with 50 μl of retinal extract or standard peptide (100 amol, 1 fmol, 10 fmol, 100 fmol, 1 pmol, 10 pmol, 100 pmol and 1 nmol Tat-μCL) diluted with PBS-T containing 10% BSA at 37°C for 2 h. The retinal extract was obtained by sonication and gradual centrifugations at 600×g for 5 min, 4,500×g for 10 min, and 20,000×g for 20 min. The supernatant of the final centrifugation was used as the retinal extract. The protein concentration was measured by the Bradford’s assay with bovine serum albumin used as the standard. After washing the plate three times with PBS-T, the plates were incubated with 50 μl of mouse monoclonal anti-HIV1 tat antibody (1:1000, ab63957, Abcam) diluted with PBS-T containing 10% BSA at 37°C for 2 h. Subsequently, the plates were then washed three times with PBS-T and incubated with horse radish peroxidase (HRP)-conjugated rabbit anti-mouse IgG (1:1000) diluted with PBS-T containing 10% BSA at 37°C for 2 h. After incubation, the plates were washed three times with PBS-T and then once with distilled water. The reaction was performed by incubating the plates with 50 μl of citrate-phosphate buffer, pH 5.0, containing 0.04% o-phenylenediamine and 0.006% hydrogen peroxide. Color development was inhibited by the addition of 50 μl of 2.4 M sulfuric acid. Absorbance was determined at 492 nm.
# All statistical analyses were conducted using the SPSS version 22 software program (IBM, Armonk, NY). A one-way ANOVA was used to statistically compare the results between multiple groups. And then, as a post hoc analysis, a Dunnett T3 test was used to determine significance between the two groups. In the present study, P < 0.05 was considered statistically significant. Experiments were performed in triplicate to confirm the reproducibility.
# photoreceptors = settings: topical instillation of 1 mM eye drops, rhodopsin P23H transgenic rats; cited from earlier work
# Description: Every effort was taken to minimize suffering. Before the rat eyes ... || Calpains are members of the Ca^2+-activated cysteine proteinases and play important roles in various physiological and pathological pathways, such as regulating signal transductions, the cell cycle, cell adhesion, gene expression, and cell death.
# [4] = 1 mM eye drops twice a day for 7 days, adult female SD rats
# Description: We performed topical instillation (20 μl) of 1 mM Tat-μCL dissolved in a sterile saline solution (pH 7.4) twice a day (9 a.m. and 5 p.m.) for 7 days in both eyes of adult female SD rats (3-month-old, weighing 350–400g) without anesthesia. […] Topical application was performed in home cages using a micropipette tip with residual liquid around the eyelids wiped off by a cotton swab. Every effort was taken to minimize suffering. Before the rat eyes were enucleated, rats were euthanized with inhalation of carbon dioxide. […] At each time point, 6 rats were examined, with 3 out of the 6 right eyes used for the immunohistochemistry and all of the left eyes used for the biochemical analyses. As a control, 3 rats were topically administered sterile saline for bilaterally using the same methods described above. Animals were randomly allocated into experimental or control group. Every effort was taken to reduce the number of animal used.
molecule,measurement,setting,value
nerve growth factor,time of peak in the retina after eye drop application,[1],6 h
CC(C)C[C@H](NC(=O)[C@H](C)NC(=O)[C@H](CC(=O)O)NC(=O)[C@@H]1CCCN1C(=O)[C@H](CCC(N)=O)NC(=O)[C@@H]1CCCN1C(=O)[C@@H]1CCCN1C(=O)[C@H](CCCNC(=N)N)NC(=O)[C@H](CCCNC(=N)N)NC(=O)[C@H](CCCNC(=N)N)NC(=O)[C@H](CCC(N)=O)NC(=O)[C@H](CCCNC(=N)N)NC(=O)[C@H](CCCNC(=N)N)NC(=O)[C@H](CCCCN)NC(=O)[C@H](CCCCN)NC(=O)[C@H](CCCNC(=N)N)NC(=O)CN)C(=O)N[C@@H](CCCCN)C(=O)N[C@@H](CO)C(=O)N[C@@H](CCCNC(=N)N)C(=O)N[C@H](C(=O)N[C@@H](CC(C)C)C(=O)N[C@@H](CCCNC(=N)N)C(=O)O)[C@@H](C)O [Tat-μCL] (H-GRKKRRQRRRPPQPDALKSRTLR-OH),time after final application of most prominent immunoreactivity,"[2]; anterior segment tissues, examined at 1 and 3 h",1 h
same,distribution of topically instilled peptide (immunoreactivity),[2]; anterior segment,"diffusely distributed in the various tissues including the cornea, sclera, iris, ciliary body, choroid and retinal pigment epithelium (RPE)"
same,time after final instillation of most prevalent immunoreactivity,"[2]; optic disc area, examined at 1, 3 and 6 h",1 h
same,distribution of topically instilled peptide (immunoreactivity),[2]; optic disc area,"detected in the optic nerve, optic nerve sheath, optic disc, all layers of the retina, and the retrobulbar connective tissues"
same,time after final application of most abundant immunoreactivity,"[2]; posterior segment, examined at 1, 3 and 6 h",1 h
same,distribution of topically instilled peptide (immunoreactivity),[2]; posterior segment,"diffusely distributed throughout the retina, including the photoreceptor outer segments, outer nuclear layer, inner nuclear layer, and ganglion cell layer"
same,roughly equivalent concentration of the peptide in the intracellular space,[3]; 1 h after final eye drops,~4.48 µM
same,concentration of the Tat-μCL in the retina,[3]; 1 h after final instillation,15.3 pg/μg protein
same,roughly equivalent concentration of the peptide in the intracellular space,[3]; 3 h after final eye drops,~1.70 µM
same,concentration of the Tat-μCL in the retina,[3]; 3 h after final instillation,5.8 pg/μg protein
same,roughly equivalent concentration of the peptide in the intracellular space,[3]; 6 h after final eye drops,~0.29 µM
same,concentration of the Tat-μCL in the retina,[3]; 6 h after final instillation,1.0 pg/μg protein
same,time for which sufficient concentration (> IC50) is maintained in the rat retina,[3]; after final application of 1 mM eye drops,at least 6 h
same,half-life of Tat-μCL in the rat retina,"[3]; estimated from ELISA results (Fig 4), topical 1 mM eye drops",approximately 2.6 h
same,adverse effects,photoreceptors,without causing any adverse effects
same,adverse effects,[4],without any adverse effects
